Assay results as given in PMC3814616, “BRAF inhibitors suppress apoptosis through off-target inhibition of JNK signaling” (eLife, 2013).

Tests used:
[1] = target: T1, BLK (Homo sapiens, UniProt P51451); assay: Quantitative competitive binding assay (KINOMEscan); conditions: for IC50: estimated Kd, averaged pointwise estimates, transformed Hill equation, read-out: Calculated estimate of IC50; for remaining binding at 0.05 µM: read-out: Percent control (50 nM); for remaining binding at 0.2 µM: read-out: Percent control (200 nM); for remaining binding at 1 µM: read-out: Percent control (1000 nM); for remaining binding at 10 µM: read-out: Percent control (10 μM)
T1 construct: purchased KINOMEscan (DiscoveRx), San Diego, CA
T1 sequence (P51451 whole entry): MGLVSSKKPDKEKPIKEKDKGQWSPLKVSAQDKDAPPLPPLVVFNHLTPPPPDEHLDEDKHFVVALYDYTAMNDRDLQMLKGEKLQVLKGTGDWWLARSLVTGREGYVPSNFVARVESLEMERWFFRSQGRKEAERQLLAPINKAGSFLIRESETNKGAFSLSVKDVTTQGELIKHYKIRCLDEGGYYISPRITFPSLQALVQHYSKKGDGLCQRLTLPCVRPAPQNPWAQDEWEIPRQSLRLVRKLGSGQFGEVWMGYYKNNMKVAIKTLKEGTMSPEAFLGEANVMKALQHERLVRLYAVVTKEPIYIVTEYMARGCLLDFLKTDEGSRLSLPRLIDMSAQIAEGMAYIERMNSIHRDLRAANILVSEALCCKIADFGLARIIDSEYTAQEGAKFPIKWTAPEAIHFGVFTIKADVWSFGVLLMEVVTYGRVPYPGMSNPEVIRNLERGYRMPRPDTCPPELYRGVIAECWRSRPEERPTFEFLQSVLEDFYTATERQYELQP

[2] = target: T2, HPK1 (MAP4K1) (Homo sapiens, UniProt Q92918); assay: as above; conditions: for remaining binding at 0.05 µM: read-out: Percent control (50 nM); for remaining binding at 0.2 µM: read-out: Percent control (200 nM); for remaining binding at 1 µM: read-out: Percent control (1000 nM); for remaining binding at 10 µM: read-out: Percent control (10 μM)
T2 construct: purchased KINOMEscan (DiscoveRx), San Diego, CA
T2 sequence (Q92918 whole entry): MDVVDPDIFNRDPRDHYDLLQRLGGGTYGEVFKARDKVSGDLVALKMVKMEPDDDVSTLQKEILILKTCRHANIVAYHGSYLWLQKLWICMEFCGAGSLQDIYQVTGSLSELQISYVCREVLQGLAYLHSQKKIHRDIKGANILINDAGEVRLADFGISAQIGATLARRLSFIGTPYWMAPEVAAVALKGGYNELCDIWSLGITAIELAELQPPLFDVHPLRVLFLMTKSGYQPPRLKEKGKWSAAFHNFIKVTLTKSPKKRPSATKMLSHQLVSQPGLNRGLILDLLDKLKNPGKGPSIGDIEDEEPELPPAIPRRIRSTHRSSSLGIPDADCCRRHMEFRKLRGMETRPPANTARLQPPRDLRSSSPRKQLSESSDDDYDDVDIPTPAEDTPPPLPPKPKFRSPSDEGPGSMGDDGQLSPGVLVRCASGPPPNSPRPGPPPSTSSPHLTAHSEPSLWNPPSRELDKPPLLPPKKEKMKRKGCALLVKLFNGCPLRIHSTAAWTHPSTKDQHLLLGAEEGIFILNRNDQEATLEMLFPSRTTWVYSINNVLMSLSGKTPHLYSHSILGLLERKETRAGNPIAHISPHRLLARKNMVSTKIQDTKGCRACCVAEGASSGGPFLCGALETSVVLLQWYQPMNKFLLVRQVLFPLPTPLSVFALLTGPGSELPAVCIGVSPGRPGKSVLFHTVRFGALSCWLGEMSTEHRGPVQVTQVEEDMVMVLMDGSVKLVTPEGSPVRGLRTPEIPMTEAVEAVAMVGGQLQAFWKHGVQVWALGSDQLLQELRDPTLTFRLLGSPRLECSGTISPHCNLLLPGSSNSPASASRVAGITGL

[3] = target: T3, MAP3K1 (Homo sapiens, UniProt Q13233); assay: as above; conditions: for remaining binding at 0.05 µM: read-out: Percent control (50 nM); for remaining binding at 0.2 µM: read-out: Percent control (200 nM); for remaining binding at 1 µM: read-out: Percent control (1000 nM); for remaining binding at 10 µM: read-out: Percent control (10 μM)
T3 construct: purchased KINOMEscan (DiscoveRx), San Diego, CA
T3 sequence (Q13233 whole entry): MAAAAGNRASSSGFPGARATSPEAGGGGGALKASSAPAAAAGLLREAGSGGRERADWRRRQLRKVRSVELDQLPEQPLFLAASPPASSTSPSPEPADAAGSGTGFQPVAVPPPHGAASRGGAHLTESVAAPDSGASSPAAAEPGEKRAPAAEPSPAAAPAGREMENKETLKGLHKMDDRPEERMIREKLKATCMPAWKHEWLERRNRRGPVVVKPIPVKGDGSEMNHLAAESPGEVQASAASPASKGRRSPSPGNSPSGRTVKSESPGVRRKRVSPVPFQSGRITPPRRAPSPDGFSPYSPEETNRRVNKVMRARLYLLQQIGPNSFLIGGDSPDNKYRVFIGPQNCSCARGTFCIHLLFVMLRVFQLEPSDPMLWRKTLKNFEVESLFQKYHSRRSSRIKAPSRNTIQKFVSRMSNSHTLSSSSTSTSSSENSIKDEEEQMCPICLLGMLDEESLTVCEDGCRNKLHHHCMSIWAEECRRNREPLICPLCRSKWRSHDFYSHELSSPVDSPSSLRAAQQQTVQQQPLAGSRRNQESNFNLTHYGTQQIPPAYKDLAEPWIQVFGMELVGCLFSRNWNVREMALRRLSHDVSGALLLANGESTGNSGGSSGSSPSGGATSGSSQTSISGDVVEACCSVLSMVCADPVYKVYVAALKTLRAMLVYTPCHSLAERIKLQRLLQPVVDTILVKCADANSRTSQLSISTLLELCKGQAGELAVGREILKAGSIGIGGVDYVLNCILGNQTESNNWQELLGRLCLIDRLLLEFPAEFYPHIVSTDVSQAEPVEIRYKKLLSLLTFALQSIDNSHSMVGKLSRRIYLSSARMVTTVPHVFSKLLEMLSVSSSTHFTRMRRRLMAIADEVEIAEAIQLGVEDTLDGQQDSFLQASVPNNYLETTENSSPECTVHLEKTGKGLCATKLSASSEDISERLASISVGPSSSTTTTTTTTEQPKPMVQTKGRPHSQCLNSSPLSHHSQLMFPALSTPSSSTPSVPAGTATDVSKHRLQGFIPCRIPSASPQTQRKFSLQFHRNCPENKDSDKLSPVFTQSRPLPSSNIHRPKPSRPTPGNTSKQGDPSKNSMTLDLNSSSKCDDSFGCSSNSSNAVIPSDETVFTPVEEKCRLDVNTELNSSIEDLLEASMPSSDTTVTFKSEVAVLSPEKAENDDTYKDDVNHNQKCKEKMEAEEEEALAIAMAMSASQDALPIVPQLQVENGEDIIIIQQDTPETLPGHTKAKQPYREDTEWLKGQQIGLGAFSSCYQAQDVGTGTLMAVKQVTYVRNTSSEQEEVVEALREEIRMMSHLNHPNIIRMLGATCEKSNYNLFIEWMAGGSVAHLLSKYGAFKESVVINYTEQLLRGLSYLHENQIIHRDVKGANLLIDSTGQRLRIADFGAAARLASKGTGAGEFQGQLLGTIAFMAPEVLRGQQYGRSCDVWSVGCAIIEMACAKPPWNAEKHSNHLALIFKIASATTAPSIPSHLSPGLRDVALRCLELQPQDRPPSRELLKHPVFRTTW

[4] = target: T4, MAP3K2 (Homo sapiens, UniProt Q9Y2U5); assay: as above; conditions: for remaining binding at 0.05 µM: read-out: Percent control (50 nM); for remaining binding at 0.2 µM: read-out: Percent control (200 nM); for remaining binding at 1 µM: read-out: Percent control (1000 nM); for remaining binding at 10 µM: read-out: Percent control (10 μM)
T4 construct: purchased KINOMEscan (DiscoveRx), San Diego, CA
T4 sequence (Q9Y2U5 1-619): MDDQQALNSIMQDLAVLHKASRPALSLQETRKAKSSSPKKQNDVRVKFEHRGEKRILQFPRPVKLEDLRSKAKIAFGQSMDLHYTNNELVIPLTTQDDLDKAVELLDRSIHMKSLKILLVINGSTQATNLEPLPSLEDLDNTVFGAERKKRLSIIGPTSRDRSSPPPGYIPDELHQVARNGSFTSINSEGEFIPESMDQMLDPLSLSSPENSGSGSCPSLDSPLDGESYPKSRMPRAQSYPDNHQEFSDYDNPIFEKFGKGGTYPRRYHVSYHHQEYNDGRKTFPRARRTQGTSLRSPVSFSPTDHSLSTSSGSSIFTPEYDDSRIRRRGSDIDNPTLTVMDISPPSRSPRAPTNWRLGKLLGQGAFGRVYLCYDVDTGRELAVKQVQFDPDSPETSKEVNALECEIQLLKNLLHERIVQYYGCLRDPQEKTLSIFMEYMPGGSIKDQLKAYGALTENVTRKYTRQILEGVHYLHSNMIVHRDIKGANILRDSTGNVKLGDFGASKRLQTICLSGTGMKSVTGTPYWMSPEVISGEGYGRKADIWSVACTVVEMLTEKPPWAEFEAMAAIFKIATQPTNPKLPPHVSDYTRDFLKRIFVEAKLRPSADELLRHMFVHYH

[5] = target: T5, MLK2 (MAP3K10) (Homo sapiens, UniProt Q02779); assay: as above; conditions: for remaining binding at 0.05 µM: read-out: Percent control (50 nM); for remaining binding at 0.2 µM: read-out: Percent control (200 nM); for remaining binding at 10 µM: read-out: Percent control (10 μM)
T5 construct: purchased KINOMEscan (DiscoveRx), San Diego, CA
T5 sequence (Q02779 whole entry): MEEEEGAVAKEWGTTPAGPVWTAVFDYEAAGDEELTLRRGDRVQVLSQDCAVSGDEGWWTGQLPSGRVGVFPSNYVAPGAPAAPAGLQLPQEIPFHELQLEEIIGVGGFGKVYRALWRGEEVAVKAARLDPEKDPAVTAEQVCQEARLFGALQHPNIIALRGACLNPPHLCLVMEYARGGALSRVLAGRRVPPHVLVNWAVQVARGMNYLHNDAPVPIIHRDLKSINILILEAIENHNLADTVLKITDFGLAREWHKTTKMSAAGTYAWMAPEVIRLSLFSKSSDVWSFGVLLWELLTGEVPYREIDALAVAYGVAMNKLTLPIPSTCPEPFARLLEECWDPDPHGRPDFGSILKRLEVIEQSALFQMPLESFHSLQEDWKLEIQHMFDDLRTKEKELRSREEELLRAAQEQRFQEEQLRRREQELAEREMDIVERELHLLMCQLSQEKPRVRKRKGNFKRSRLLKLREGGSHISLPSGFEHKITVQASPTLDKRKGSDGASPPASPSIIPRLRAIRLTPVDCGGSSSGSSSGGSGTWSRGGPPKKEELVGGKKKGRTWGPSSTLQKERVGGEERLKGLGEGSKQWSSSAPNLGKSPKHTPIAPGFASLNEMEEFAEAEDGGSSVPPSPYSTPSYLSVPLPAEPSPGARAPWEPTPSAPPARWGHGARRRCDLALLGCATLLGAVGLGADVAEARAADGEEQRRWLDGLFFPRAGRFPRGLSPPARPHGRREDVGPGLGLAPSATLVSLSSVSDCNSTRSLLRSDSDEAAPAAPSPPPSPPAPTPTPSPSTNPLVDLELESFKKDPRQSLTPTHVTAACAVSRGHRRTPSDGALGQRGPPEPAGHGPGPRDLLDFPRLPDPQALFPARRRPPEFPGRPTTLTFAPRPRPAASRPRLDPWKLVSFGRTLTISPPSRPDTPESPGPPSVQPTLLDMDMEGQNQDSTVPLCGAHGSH

[6] = target: T6, OSR1 (OXSR1) (Homo sapiens, UniProt O95747); assay: as above; conditions: for remaining binding at 0.05 µM: read-out: Percent control (50 nM); for remaining binding at 0.2 µM: read-out: Percent control (200 nM); for remaining binding at 1 µM: read-out: Percent control (1000 nM); for remaining binding at 10 µM: read-out: Percent control (10 μM)
T6 construct: purchased KINOMEscan (DiscoveRx), San Diego, CA
T6 sequence (O95747 whole entry): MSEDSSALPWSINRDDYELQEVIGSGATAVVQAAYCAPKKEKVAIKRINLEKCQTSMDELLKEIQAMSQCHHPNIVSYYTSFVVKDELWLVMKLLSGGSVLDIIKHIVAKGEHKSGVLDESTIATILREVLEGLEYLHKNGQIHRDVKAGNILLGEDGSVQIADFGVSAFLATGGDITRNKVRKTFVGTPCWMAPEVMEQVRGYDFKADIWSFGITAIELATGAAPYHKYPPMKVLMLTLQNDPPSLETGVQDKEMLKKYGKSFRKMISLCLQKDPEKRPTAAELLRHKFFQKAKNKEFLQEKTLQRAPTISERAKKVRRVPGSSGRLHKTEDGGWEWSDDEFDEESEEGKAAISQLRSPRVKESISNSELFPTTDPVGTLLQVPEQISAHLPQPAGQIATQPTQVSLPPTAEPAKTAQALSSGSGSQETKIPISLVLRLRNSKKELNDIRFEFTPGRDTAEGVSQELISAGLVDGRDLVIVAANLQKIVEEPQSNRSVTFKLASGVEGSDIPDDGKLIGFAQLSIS

[7] = target: T7, RIPK1 (Homo sapiens, UniProt Q13546); assay: as above; conditions: for remaining binding at 0.05 µM: read-out: Percent control (50 nM); for remaining binding at 0.2 µM: read-out: Percent control (200 nM); for remaining binding at 1 µM: read-out: Percent control (1000 nM); for remaining binding at 10 µM: read-out: Percent control (10 μM)
T7 construct: purchased KINOMEscan (DiscoveRx), San Diego, CA
T7 sequence (Q13546 whole entry): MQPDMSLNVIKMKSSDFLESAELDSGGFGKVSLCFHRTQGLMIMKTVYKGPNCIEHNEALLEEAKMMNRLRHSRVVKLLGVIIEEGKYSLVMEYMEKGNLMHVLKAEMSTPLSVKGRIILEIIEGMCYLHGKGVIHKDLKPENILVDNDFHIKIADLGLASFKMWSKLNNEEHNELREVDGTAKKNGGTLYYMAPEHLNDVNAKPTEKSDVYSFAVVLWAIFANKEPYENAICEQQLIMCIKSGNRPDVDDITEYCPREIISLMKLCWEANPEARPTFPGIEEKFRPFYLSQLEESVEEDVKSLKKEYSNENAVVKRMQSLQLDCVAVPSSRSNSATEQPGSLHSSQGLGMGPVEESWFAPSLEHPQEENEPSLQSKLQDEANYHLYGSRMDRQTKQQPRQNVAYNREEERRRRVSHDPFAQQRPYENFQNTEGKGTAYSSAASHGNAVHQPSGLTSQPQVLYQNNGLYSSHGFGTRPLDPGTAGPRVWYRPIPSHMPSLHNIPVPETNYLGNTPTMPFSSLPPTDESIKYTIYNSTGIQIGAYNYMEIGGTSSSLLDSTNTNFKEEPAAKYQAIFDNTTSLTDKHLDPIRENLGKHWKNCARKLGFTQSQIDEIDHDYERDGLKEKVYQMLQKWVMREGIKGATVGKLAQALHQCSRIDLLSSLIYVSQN

[8] = target: T8, TAOK2 (Homo sapiens, UniProt Q9UL54); assay: as above; conditions: for remaining binding at 0.05 µM: read-out: Percent control (50 nM); for remaining binding at 0.2 µM: read-out: Percent control (200 nM); for remaining binding at 1 µM: read-out: Percent control (1000 nM); for remaining binding at 10 µM: read-out: Percent control (10 μM)
T8 construct: purchased KINOMEscan (DiscoveRx), San Diego, CA
T8 sequence (Q9UL54 1-1235): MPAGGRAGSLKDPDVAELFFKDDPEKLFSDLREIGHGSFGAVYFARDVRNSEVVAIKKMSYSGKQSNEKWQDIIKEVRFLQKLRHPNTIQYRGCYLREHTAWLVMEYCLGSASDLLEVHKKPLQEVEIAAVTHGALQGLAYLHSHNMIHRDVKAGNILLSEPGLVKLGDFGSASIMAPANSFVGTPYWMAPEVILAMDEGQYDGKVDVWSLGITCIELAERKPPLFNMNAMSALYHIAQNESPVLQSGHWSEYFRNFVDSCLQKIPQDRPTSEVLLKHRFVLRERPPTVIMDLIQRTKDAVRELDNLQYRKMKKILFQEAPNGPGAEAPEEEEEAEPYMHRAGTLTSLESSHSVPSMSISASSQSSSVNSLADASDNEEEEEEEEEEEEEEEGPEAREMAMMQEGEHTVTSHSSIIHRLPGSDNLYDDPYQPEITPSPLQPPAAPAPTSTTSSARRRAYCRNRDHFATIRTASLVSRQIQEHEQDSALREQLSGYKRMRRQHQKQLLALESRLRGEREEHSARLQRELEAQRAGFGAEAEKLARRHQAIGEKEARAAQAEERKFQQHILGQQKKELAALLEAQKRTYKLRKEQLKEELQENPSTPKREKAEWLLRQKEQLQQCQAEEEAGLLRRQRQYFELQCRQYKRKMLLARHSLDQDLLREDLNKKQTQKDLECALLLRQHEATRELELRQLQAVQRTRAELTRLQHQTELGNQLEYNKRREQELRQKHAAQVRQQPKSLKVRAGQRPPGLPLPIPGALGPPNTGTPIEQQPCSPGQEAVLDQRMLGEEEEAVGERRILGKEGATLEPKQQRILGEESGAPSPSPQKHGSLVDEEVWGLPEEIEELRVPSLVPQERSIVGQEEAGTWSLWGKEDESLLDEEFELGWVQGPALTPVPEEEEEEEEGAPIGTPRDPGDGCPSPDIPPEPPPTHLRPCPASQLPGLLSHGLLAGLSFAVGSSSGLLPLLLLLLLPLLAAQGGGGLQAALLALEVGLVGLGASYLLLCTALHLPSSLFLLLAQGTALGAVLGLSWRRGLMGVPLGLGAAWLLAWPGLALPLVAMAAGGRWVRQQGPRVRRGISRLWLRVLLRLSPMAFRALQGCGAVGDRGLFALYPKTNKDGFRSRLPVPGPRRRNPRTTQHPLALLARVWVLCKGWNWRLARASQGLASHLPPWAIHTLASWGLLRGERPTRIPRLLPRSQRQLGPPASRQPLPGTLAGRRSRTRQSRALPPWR

[9] = system: NOXA; assay: Western blot, UV-induced NOXA expression; assay type: cell-based, human; conditions: 1 μM

CCCS(=O)(=O)Nc1ccc(F)c(C(=O)c2c[nH]c3ncc(Cl)cc23)c1F [PLX4720]
IC50 [1]: 447 nM | remaining binding at 0.05 µM [1]: 91% | remaining binding at 0.2 µM [1]: 78% | remaining binding at 1 µM [1]: 32% | remaining binding at 10 µM [1]: 1% | remaining binding at 0.05 µM [2]: 100% | remaining binding at 0.2 µM [2]: 100% | remaining binding at 1 µM [2]: 100% | remaining binding at 10 µM [2]: 47% | remaining binding at 0.05 µM [3]: 96% | remaining binding at 0.2 µM [3]: 100% | remaining binding at 1 µM [3]: 92% | remaining binding at 10 µM [3]: 84% | remaining binding at 0.05 µM [4]: 100% | remaining binding at 0.2 µM [4]: 93% | remaining binding at 1 µM [4]: 87% | remaining binding at 10 µM [4]: 41% | remaining binding at 0.05 µM [5]: 100% | remaining binding at 0.2 µM [5]: 82% | remaining binding at 1 µM ([5]; read-out: Percent control (1000 nM)): 100% | remaining binding at 10 µM [5]: 76% | remaining binding at 0.05 µM [6]: 100% | remaining binding at 0.2 µM [6]: 94% | remaining binding at 1 µM [6]: 95% | remaining binding at 10 µM [6]: 42% | remaining binding at 0.05 µM [7]: 99% | remaining binding at 0.2 µM [7]: 87% | remaining binding at 1 µM [7]: 85% | remaining binding at 10 µM [7]: 50% | remaining binding at 0.05 µM [8]: 92% | remaining binding at 0.2 µM [8]: 100% | remaining binding at 1 µM [8]: 93% | remaining binding at 10 µM [8]: 51% | UV-induced NOXA expression ([9]; cSCC and HaCaT cell lines): suppressed

CCCS(=O)(=O)Nc1ccc(F)c(C(=O)c2c[nH]c3ncc(-c4ccc(Cl)cc4)cc23)c1F [vemurafenib]
IC50 [1]: 518 nM | remaining binding at 0.05 µM [1]: 96% | remaining binding at 0.2 µM [1]: 66% | remaining binding at 1 µM [1]: 30% | remaining binding at 10 µM [1]: 0.55% | remaining binding at 0.05 µM [2]: 95% | remaining binding at 0.2 µM [2]: 88% | remaining binding at 1 µM [2]: 67% | remaining binding at 10 µM [2]: 15% | remaining binding at 0.05 µM [3]: 98% | remaining binding at 0.2 µM [3]: 84% | remaining binding at 1 µM [3]: 89% | remaining binding at 10 µM [3]: 81% | remaining binding at 0.05 µM [4]: 91% | remaining binding at 0.2 µM [4]: 91% | remaining binding at 1 µM [4]: 89% | remaining binding at 10 µM [4]: 83% | remaining binding at 0.05 µM [5]: 92% | remaining binding at 0.2 µM [5]: 96% | remaining binding at 10 µM [5]: 78% | remaining binding at 0.05 µM [6]: 100% | remaining binding at 0.2 µM [6]: 100% | remaining binding at 1 µM [6]: 89% | remaining binding at 10 µM [6]: 98% | remaining binding at 0.05 µM [7]: 92% | remaining binding at 0.2 µM [7]: 100% | remaining binding at 1 µM [7]: 99% | remaining binding at 10 µM [7]: 73% | IC50 ([8]; estimated Kd, averaged pointwise estimates, transformed Hill equation, read-out: Calculated estimate of IC50): 11800 nM | remaining binding at 0.05 µM [8]: 98% | remaining binding at 0.2 µM [8]: 92% | remaining binding at 1 µM [8]: 95% | remaining binding at 10 µM [8]: 70% | NOXA induction at 24 hr post-UV irradiation ([9]; NHEK): diminished
